Data reported in publication PMC11110238, “Synthesis of novel carbazole hydrazine-carbothioamide scaffold as potent antioxidant, anticancer and antimicrobial agents” (BMC Chemistry, 2024).
Converted amounts (≈) assume the structure as drawn. Like-named read-outs stand apart in the source and are kept apart here. Marks after values point to notes of the source that are not given here.

What was measured:
[1] = DPPH radical scavenging assay; format: biochemical; conditions: 30 min, 517 nm
Description: To estimate the Carbazole derivatives' antioxidant potential, a solution of each compound (1 mM/mL) in methanol was serially diluted with methanol to obtain a concentration of 1, 2, 5, 10, 20, 50, and 100 µM/mL. Then, DPPH (2,2-diphenyl-1-picrylhydrazyl) reagent (Sigma, USA) was dissolved in 0.002% w/v methanol and mixed with the previously prepared working concentrations in a 1:1 ratio. The same procedures were repeated for Trolox (Sigma-Aldrich, Denmark), which was used as a positive control. All of the solutions were kept in the dark chamber for 30 min at an ordinary temperature. Then, their absorbance values were measured at a wavelength of 517 nm utilizing a UV–visible spectrophotometer. The DPPH inhibition potentials by Carbazole derivatives and Trolox were determined employing the following equation: DPPH inhibition(\%)=abs(blank)-abs(sample)/abs(blank)∗100\% where absblank is the blank absorbance and abssample is the absorbance of the samples [58]. The antioxidant half-maximal inhibitory concentration (IC50) of the synthesized carbazole derivatives and Trolox were assessed by using an online tool “Quest Graph™ IC50 Calculator.” AAT Bioquest, Inc., 25 May. 2023, https://www.aatbio.com/tools/ic50-calculator.

[2] = system: MCF-7 cell line; experiment: MTT cell viability, MCF-7 cancer cell line; format: cell-based; conditions: for IC50: Homo sapiens, MCF7, MTT, 48 h, read-out: IC50 values Carbazole Derivatives Effect on MCF-7 Cell Line
Description: MCF-7 cancer cell lines were cultured at Dulbecco’s Modified Eagle Medium High Glucose (DMEM) (EuroClone, Via Figino, Italy); fetal bovine serum (FBS) and MTT (3-(4,5-Dimethylthiazol-2-yl)-2,5-Diphenyl Tetrazolium Bromide) were provided by Sigma-Aldrich (Darmstadt, Germany); ApopNexin Annexin-V-FITC with PI Apoptosis Kit was obtained from Merck (Darmstadt, Germany); Total RNA Isolation Kit was provided by Analytic Jena (Jena, Germany), SensiFast cDNA Synthesis Kit was provided by Meridian Bioscience (Cincinati, USA), SybrGreen Master Mix was obtained from EuroClone (Via Figino, Italy).
(§1) Cells (MCF-7 and L929) were incubated in 75 cm^2 sterile flasks with 10% FBS, 100 U/mL penicillin, and 100 µg/mL streptomycin. The cells were grown at 37 ^○C in 5% CO2, and MTT was used to screen the viability of the cells. Cells were seeded at a density of 10^4 cells per well. The cells were then cultured for 24 h in 100 µl of DMEM complete medium. After pretreatment with different concentrations of the compounds for 48 h, 10 µl of 5 mg/mL MTT solution was added to each well and incubated for 4 h at 37 ^○C, and 100 µl of DMSO was used in each well to dissolve the blue formazan crystals. Then, the absorbance was measured at 570 nm. The cell viability percentages of compound 4o against MCF-7 cancer cell lines and L929 normal cell lines were presented in Fig. 2 in comparison with doxorubicin anticancer agent.

[3] = system: L929 normal cell lines; experiment: MTT cell viability, L929 normal cell line; format: cell-based; conditions: Mus musculus, 48 h
Description: as §1

[4] = system: MCF-7 cells; experiment: Annexin-V-FITC/PI apoptosis assay by flow cytometry; format: cell-based; conditions: MCF-7, sum of pre-apoptotic, post-apoptotic and necrosis
Description: FITC Annexin-V apoptosis detection kit with PI, ApopNexinTM FITC (APT750, Merk, Germany) was used for apoptosis assay. MCF-7 cells were seeded into a 6-well plate (1 × 10^6 cells per well). Then, the cells were incubated with the compounds at the cytotoxic concentration by employing a cell viability assay. Apoptotic cells were cultured with the compounds, the medium was removed after incubation, and the cells were washed twice with 5 mL of pre-chilled phosphate-buffered saline. Cells washed with PBS were lifted with Trypsin–EDTA and centrifuged at 400 rpm for 5 min. The resulting cells were each treated with 1 mL of cold 1-X Binding Buffer (Sigma Aldrich, USA). Then, 200 μL of the mixture was taken and placed in a flow cytometry tube, and the other part containing cells was kept on ice. First, 3 µl of ApopNexinTM FITC and 2 µl of 100X propidium iodide (PI) (P4170, Sigma Aldrich, USA) were added to the solution taken into the sample tube and mixed. The resulting mixture was incubated for 15 min in the dark at room temperature. At the end of the incubation, the samples were measured in flow cytometry (Beckman Coulter Cytoflex) and data were obtained.

[5] = system: Staphylococcus aureus; experiment: MIC and MBC test, S. aureus; format: cell-based
Description: (§2) Using Muller Hinton agar medium, the antibacterial activity was evaluated by using 24 h cultures of Escherichia coli, Staphylococcus aureus, and Candida albicans. E. coli and S. aureus were incubated in 1% Mueller Hinton Broth (MHB) liquid medium at 37 °C for 24 h; C. albicans was incubated in Sabouraud Dextrose Broth (SDB) at 30 °C for 48 h. MIC (Minimum Inhibitory Concentration) and MBC (Minimum Bactericidal Concentration) tests were performed to determine antimicrobial activity. This stage was carried out in a sterile cabinet.
(§3) The density of microorganisms in fresh cultures was adjusted according to the MacFarland 0.5 scale. For that, the microorganisms were centrifuged at 4000 rpm for 20 min. The supernatant was poured off, and the pellet was washed with 1 mL of 0.9% NaCl solution (physiological saline). The centrifugation was then repeated. The pellet was dissolved again with saline solution and adjusted to 0.5 MacFarland. In the experiment performed in a sterile 96-well plate, compound 4o was diluted ½ with DMSO to prepare a stock solution. In the first, 100 µl of medium and 100 µl of compound 4o as initial dilutions. Dilution was performed seven times at a ratio of ½. Then, 5 µl of fresh microorganism cultures prepared as MacFarland 0.5 were inoculated. The control group was prepared as 100 µl medium, 100 µl distilled water, and 5 µl microorganisms. The plates were incubated at 37 °C and 30 °C for 24 h.
(§4) After incubation, 10 µl of the sample was taken, dropped onto the respective media, and incubated for 24 h at appropriate temperatures to clearly distinguish the residues left by the compound 4o and the growth of microorganisms. Mueller Hinton Agar (MHA) was used for E. coli and S. aureus, and Potato Dextrose Agar (PDA) was used for C. albicans. After incubation, MIC and MBC values were determined. The first well with a significant decrease in growth was considered as MIC, and the first well with no growth was considered as MBC [59, 60].

[6] = system: Escherichia coli; experiment: MIC and MBC test, E. coli; format: cell-based
Description: as §2, §3, §4

[7] = parameters: method as in PMID 37328860; conditions: previous preliminary work; read-out: Antioxidant IC50 against DPPH; cited from earlier work
[8] = system: Candida albicans; experiment: MIC and MBC test, C. albicans; format: cell-based
Description: as §2, §3, §4

Compound | IC50 [1] | IC50 [2] | melting point | other results
O=C(Cn1c2ccccc2c2ccccc21)NNC(=S)Nc1ccccc1 [Compound 4a, 2-(2-(9H-carbazol-9-yl)acetyl)-N-phenylhydrazine-1-carbothioamide] | 52.1 ± 2.42 µM | > 20 µM | 235 to 237 °C | –
COc1cccc(NC(=S)NNC(=O)Cn2c3ccccc3c3ccccc32)c1 [Compound 4b, 2-(2-(9H-carbazol-9-yl)acetyl)-N-(3-methoxyphenyl)hydrazine-1-carbothioamide] | 5.15 ± 1.02 µM | > 20 µM | 218 to 220 °C | –
O=C(Cn1c2ccccc2c2ccccc21)NNC(=S)NCCCN1CCOCC1 [Compound 4c, 2-(2-(9H-carbazol-9-yl)acetyl)-N-(3-morpholinopropyl)hydrazine-1-carbothioamide] | 8.99 ± 2.17 µM | > 20 µM | 189 to 191 °C | –
O=C(Cn1c2ccccc2c2ccccc21)NNC(=S)Nc1cccc2ccccc12 [Compound 4d, 2-(2-(9H-carbazol-9-yl)acetyl)-N-(naphthalen-1-yl)hydrazine-1-carbothioamide] | 29.7 ± 1.77 µM | > 20 µM | 222 to 224 °C | –
O=C(Cn1c2ccccc2c2ccccc21)NNC(=S)Nc1ccc([N+](=O)[O-])cc1 [Compound 4e, 2-(2-(9H-carbazol-9-yl)acetyl)-N-(4-nitrophenyl)hydrazine-1-carbothioamide] | 50.8 ± 1.88 µM | > 20 µM | 235 to 237 °C | –
COc1ccc(NC(=S)NNC(=O)Cn2c3ccccc3c3ccccc32)cc1 [Compound 4f, 2-(2-(9H-carbazol-9-yl)acetyl)-N-(4-methoxyphenyl)hydrazine-1-carbothioamide] | 3.41 ± 1.05 µM | > 20 µM | 210 to 212 °C | –
O=C(Cn1c2ccccc2c2ccccc21)NNC(=S)Nc1ccc(Br)cc1 [Compound 4g, 2-(2-(9H-carbazol-9-yl)acetyl)-N-(4-bromophenyl)hydrazine-1-carbothioamide] | 4.14 ± 0.75 µM | > 20 µM | 255 to 257 °C | –
O=C(Cn1c2ccccc2c2ccccc21)NNC(=S)Nc1ccc(Cl)cc1 [Compound 4h, 2-(2-(9H-carbazol-9-yl)acetyl)-N-(4-chlorophenyl)hydrazine-1-carbothioamide] | 0.73 ± 0.54 µM | > 20 µM | 235 to 237 °C | –
O=C(Cn1c2ccccc2c2ccccc21)NNC(=S)Nc1ccc(C(F)(F)F)cc1 [Compound 4k, 2-(2-(9H-carbazol-9-yl)acetyl)-N-(4-(trifluoromethyl)phenyl)hydrazine-1-carbothioamide] | 2.08 ± 0.72 µM | > 20 µM | 177 to 179 °C | –
O=C(Cn1c2ccccc2c2ccccc21)NNC(=S)NC1CCCCC1 [Compound 4m, 2-(2-(9H-carbazol-9-yl)acetyl)-N-cyclohexylhydrazine-1-carbothioamide] | 2.37 ± 1.7 µM | > 20 µM | 211 to 213 °C | –
Cc1ccc(NC(=S)NNC(=O)Cn2c3ccccc3c3ccccc32)cc1 [Compound 4n, 2-(2-(9H-carbazol-9-yl)acetyl)-N-(p-tolyl)hydrazine-1-carbothioamide] | 1.52 ± 0.58 µM | > 20 µM | 180 to 182 °C | –
O=C(Cn1c2ccccc2c2ccccc21)NNC(=S)NCc1ccccc1 [Compound 4p, 2-(2-(9H-carbazol-9-yl)acetyl)-N-benzylhydrazine-1-carbothioamide] | 10.2 ± 1.85 µM | > 20 µM | 169 to 171 °C | –
O=C(Cn1c2ccccc2c2ccccc21)NNC(=S)NC1CC2CCC1C2 (stereo not shown) [Compound 4r, 2-(2-(9H-carbazol-9-yl)acetyl)-N-(bicyclo[2.2.1]heptan-2-yl)hydrazine-1-carbothioamide] | 19.9 ± 1.55 µM | 4.99 ± 0.42 µM | 199 to 201 °C | –
O=C(Cn1c2ccccc2c2ccccc21)NNC(=S)NCCc1ccccc1 [Compound 4s, 2-(2-(9H-carbazol-9-yl)acetyl)-N-phenethylhydrazine-1-carbothioamide] | 3.05 ± 1.75 µM | > 20 µM | 170 to 172 °C | –
CC(C)NC(=S)NNC(=O)Cn1c2ccccc2c2ccccc21 [Compound 4t, 2-(2-(9H-carbazol-9-yl)acetyl)-N-isopropylhydrazine-1-carbothioamide] | 15.9 ± 2.07 µM | > 20 µM | 186 to 188 °C | –
C=CCNC(=S)NNC(=O)Cn1c2ccccc2c2ccccc21 [Compound 4y, 2-(2-(9H-carbazol-9-yl)acetyl)-N-allylhydrazine-1-carbothioamide] | 0.38 ± 0.05 µM | > 20 µM | 205 to 207 °C | –
CNC(=S)NNC(=O)Cn1c2ccccc2c2ccccc21 [Compound 4z, 2-(2-(9H-carbazol-9-yl)acetyl)-N-methylhydrazine-1-carbothioamide] | 21.6 ± 0.87 µM | > 20 µM | 173 to 175 °C | –
COc1cccc2c1C(=O)c1c(O)c3c(c(O)c1C2=O)C[C@@](O)(C(=O)CO)C[C@@H]3O[C@H]1C[C@H](N)[C@H](O)[C@H](C)O1 [Doxorubicin, reference compound] | – | 5.06 ± 0.21 µM | – | IC50 [3]: 19.3 µM; selective index (SI) ([2]; L929 vs MCF-7): 3.82; total dead cells [4]: 14.50%
C[C@H]1c2cccc(O)c2C(=O)C2=C(O)[C@]3(O)C(=O)C(C(N)=O)=C(O)[C@@H](N(C)C)[C@@H]3[C@@H](O)[C@@H]21 [Doxycyline, reference compound] | – | – | – | MBC [5]: 63.0^a µM; MBC [6]: 50.9^a µM; MIC [6]: 5.09^a µM
COc1ccc(S(=O)(=O)NNC(=O)Cn2c3ccccc3c3ccccc32)cc1 [St.1] | – | – | – | IC50 [7]: 1.05 µM
Cc1c(C)c2c(c(C)c1O)CCC(C)(C(=O)O)O2 (stereo not shown) [Trolox, reference compound] | 7.71 ± 1.47 µM | – | – | –
OC(Cn1cncn1)(Cn1cncn1)c1ccc(F)cc1F [fluconazole, reference compound] | – | – | – | MBC [8]: 16.3 µM (≈ 4.99 µg/mL)
